# Measurements as given in patent US20110105496A1, “Methods For The Treatment Of Myosin Heavy Chain-Mediated Conditions Using 4,7-Dihydrothieno[2,3-B]Pyridine Compounds” (priority 2005, published 2011).
# System: alpha-MyHC
# Assay: alpha-MyHC cytoblot process in neonatal rat ventricular myocytes (NRVM)
# Assay type: cell-based
# Settings: NRVM, 72 hours; for EC50: alpha-MyHC cytoblot; for Max Plateau: maximum of dose response fit
# Description: In vitro activity of each compound is measured using the alpha-MyHC cytoblot process. Briefly, neonatal rat ventricular myocytes (NRVM) at 120,000 cells/ml in HyQ DME/High modified culture media supplemented with 10% charcoal/dextran treated FBS, 0.1% Nutridoma-SP, 1:100 MEM non-essential amino acids, 1:50 MEM amino acids solution w/o L-Gln, 1 mM sodium pyruvate and 1:100 P/S/G, are plated on gelatin coated sterile 384-well plates (Costar 3712) at 6,000 cells per well. Cells are incubated overnight at 37° C. in 5% CO2 100% humidity. Following overnight growth the media is changed to HyQ DME/High modified culture media supplemented with 0.3% Nutridoma-SP, 1:100 MEM non-essential amino acids, 1:50 MEM amino acids solution w/o L-Gln, 1 mM sodium pyruvate and 1:100 P/S/G. Cells are then dosed with serial dilutions of each compound in DMSO. Each concentration in the dose range is dosed in quadruplicate. Dosing is done in such a way so that the final DMSO concentration was 0.44%. Compound dilutions are 3-fold with the final top concentration of 10 uM. […] Following dosing, the cells are incubated for 72 hours at 37° C. in 5% CO2 100% humidity and then processed with the cytoblot method. Briefly, cell media is aspirated and cell monolayers washed with PBS and fixed with 100% methanol for 30 minutes. Fixed cells are then blocked with PBS, 0.05% Tween-20, 1% BSA, for 1 hour. Following blocking, cells are incubated with primary alpha-MyHC-specific antibody antibody (1:30 dilution of BA-G5 hybridoma conditioned media, ATCC HB276) for 1 hour. Following incubation with the primary antibody, cells are washed with PBS, 0.05% Tween-20, 1% BSA and incubated with secondary antibody (1:1000 dilution, goat-anti-mouse HRP, Southern Biotech, 1031-05) for 1 hour. Following incubation with the secondary antibody, wells are washed and incubated in SuperSignal, West Dura HRP-luminescence substrate for 30 seconds under shaking at room temperature. Luminescence is measured using a Packard Fusion plate reader. […] RLU values are converted into per cent fraction of low control and dose responses are fitted to a sigmoidal 4-parameter equation (XLFit, IDBS) where the EC50 and Max Plateau values were extracted. […] Max Plateau is the […] maximum value determined by the dose response fit.
# [1] = Table 1, low control = vehicle only
Compound,"EC50 (Table 1, mean ± spread)",EC50 (Table 2 (esters)),Max Plateau [1],Max Plateau (Table 2 (esters)),also measured
CCC(=O)C1=C(CC)Nc2sc(C(=O)c3ccc(F)c(F)c3)c(N)c2C1c1cc(F)cc(F)c1 (centres unmarked) [Compound 101],3.72 nM,,230.49 ± 17.13 per cent fraction of low control,,
CC(=O)C1=C(C)Nc2sc(C(=O)c3cccc([N+](=O)[O-])c3)c(N)c2C1c1ccc(C(=O)O)cc1 (centres unmarked) [Compound 9],,,100.00 ± 0.00 per cent fraction of low control,,
COC(=O)C1=C(C(C)C)Nc2sc(C(=O)c3ccc(Cl)c(Cl)c3)c(N)c2C1c1cccc([N+](=O)[O-])c1 (centres unmarked) [Compound 134],,,,98.33 per cent fraction of low control,
CCC(=O)C1=C(CC)Nc2sc(C(=O)c3ccc(F)c(F)c3)c(N)c2C1c1ccnc(F)c1 (centres unmarked) [Compound 102],4.18 nM,,269.88 ± 36.90 per cent fraction of low control,,
CCC(=O)C1=C(CC)Nc2sc(C(=O)c3ccc(Cl)cc3)c(N)c2C1c1ccccc1 (centres unmarked) [Compound 80],103 nM,,226.13 ± 5.25 per cent fraction of low control,,
CCC(=O)C1=C(CC)Nc2sc(C(=O)c3ccc(Cl)c(Cl)c3)c(N)c2C1c1ccccc1[N+](=O)[O-] (centres unmarked) [Compound 59],425 nM,,152.77 ± 11.42 per cent fraction of low control,,
CCC(=O)C1=C(CC)Nc2sc(C(=O)c3ccc4c(c3)OCO4)c(N)c2C1c1ccccc1F (centres unmarked) [Compound 71],57.5 nM,,223.30 ± 32.84 per cent fraction of low control,,
CC(C)C(=O)C1=C(C(C)C)Nc2sc(C(=O)c3ccc(Cl)c(Cl)c3)c(N)c2C1c1ccccc1 (centres unmarked) [Compound 46],,,98.33 ± 4.08 per cent fraction of low control,,
CCC(=O)C1=C(CC)Nc2sc(C(=O)c3ccccc3Br)c(N)c2C1c1ccccc1 (centres unmarked) [Compound 106],8.93 nM,,244.21 ± 29.53 per cent fraction of low control,,
CC(=O)C1=C(C)Nc2sc(C(=O)c3ccccc3)c(N)c2C1c1ccncc1 (centres unmarked) [Compound 19],3390 nM,,260.00 ± 36.06 per cent fraction of low control,,
CC(=O)C1=C(C)Nc2sc(C(=O)c3cccc(C(=O)O)c3)c(N)c2C1c1ccccc1 (centres unmarked) [Compound 65],,,100.00 ± 0.00 per cent fraction of low control,,
COCC1=C(C(=O)OC)C(c2ccccc2)c2c(sc(C(=O)c3ccc(Cl)c(Cl)c3)c2N)N1 (centres unmarked) [Compound 120],,157 nM,,140.79 per cent fraction of low control,
CCC(=O)C1=C(CC)Nc2sc(C(=O)c3cc(C(C)(C)C)c(O)c(C(C)(C)C)c3)c(N)c2C1c1ccccc1 (centres unmarked) [Compound 90],,,300.00 ± 0.00 per cent fraction of low control,,
CC(=O)C1=C(C)Nc2sc(C(=O)c3ccc(Cl)c(Cl)c3)c(N)c2C1c1ccc(Br)cc1 (centres unmarked) [Compound 22],2070 nM,,174.35 ± 23.39 per cent fraction of low control,,
"CCOC(=O)C1=C(CC)Nc2sc(C(=O)c3cccnc3)c(N)c2C1c1ccncc1F (centres unmarked) [Compound 174, 3-amino-6-ethyl-4-(3 fluoro-pyridin-4-yl)-2-(pyridine-3-carbonyl)-4,7 dihydro-thieno[2,3-b]pyridine-5-carboxylic acid ethyl ester]",,,,263.57 per cent fraction of low control,
CC(=O)C1=C(C)Nc2sc(C(=O)c3ccc(Cl)c(Cl)c3)c(N)c2C1c1ccccc1F (centres unmarked) [Compound 27],86.4 nM,,220.13 ± 23.10 per cent fraction of low control,,
CCOC(=O)C1=C(C)Nc2sc(C(=O)c3ccc(Cl)c(Cl)c3)c(N)c2C1c1ccccc1 (centres unmarked) [Compound 113],,68 nM,,256.38 per cent fraction of low control,
CC(=O)C1=C(C)Nc2sc(C(=O)c3ccccc3)c(N)c2C1c1ccccc1 (centres unmarked) [Compound 3],797 nM,,250.88 ± 32.62 per cent fraction of low control,,
CCOC(=O)C1=C(C)Nc2sc(C(=O)c3ccccc3)c(N)c2C1(C)c1ccccc1 (centres unmarked) [Compound 206],,,,,Max Plateau (Table 4): 169.32 ± 23.07 per cent fraction of low control
CC(=O)C1=C(C)Nc2sc(C(=O)c3ccc(Cl)c(Cl)c3)c(N)c2C1c1ccc(O)cc1Cl (centres unmarked) [Compound 29],15.5 nM,,281.88 ± 32.78 per cent fraction of low control,,
CCC(=O)C1=C(CC)Nc2sc(C(=O)c3ccc(Cl)c(Cl)c3)c(N)c2C1c1c(F)cccc1F (centres unmarked) [Compound 63],20.8 nM,,230.07 ± 45.59 per cent fraction of low control,,
CCC1=C(C(=O)OCCOC)C(c2ccnc(F)c2)c2c(sc(C(=O)c3cccc(C#N)c3)c2N)N1 (racemic) [Compound 192],,,,237.07 ± 13.03 per cent fraction of low control,
CCC(=O)C1=C(CC)Nc2sc(C(=O)c3cc(Cl)ccc3Cl)c(N)c2C1c1ccccc1 (centres unmarked) [Compound 64],10.2 nM,,281.39 ± 54.54 per cent fraction of low control,,
CCNC(=O)C1=C(C)Nc2sc(C(=O)c3ccc(Cl)c(Cl)c3)c(N)c2C1c1ccccc1 (racemic) [Compound 195],,,,,EC50 (Table 3 (amides)): 337000 nM; Max Plateau (Table 3 (amides)): 126.67 ± 23.09 per cent fraction of low control
CC(=O)C1=C(C)Nc2sc(C(=O)c3ccc(Cl)c(Cl)c3)c(N)c2C1c1cccc2c1OCO2 (centres unmarked) [Compound 31],,,121.08 ± 18.32 per cent fraction of low control,,
"CCC1=C(C(=O)OCCOC)C(c2ccccc2F)c2c(sc(C(=O)c3cccc(Cl)c3)c2N)N1 (single isomer, unassigned) [Compound 187]",,,,162.93 ± 10.10 per cent fraction of low control,
CC(=O)C1=C(C)Nc2sc(C(=O)c3ccc(Cl)c(Cl)c3)c(N)c2C1c1ccc(F)cc1 (centres unmarked) [Compound 50],161 nM,,190.79 ± 27.94 per cent fraction of low control,,
CCC(=O)C1=C(CC)Nc2sc(C(=O)c3ccc(Cl)c(Cl)c3)c(N)c2C1c1cccc2ccccc12 (centres unmarked) [Compound 85],,,105.90 ± 6.18 per cent fraction of low control,,
CCC(=O)C1=C(CC)Nc2sc(C(=O)c3ccc(Cl)c(Cl)c3)c(N)c2C1c1c(F)cccc1Cl (centres unmarked) [Compound 40],14.4 nM,,244.87 ± 7.92 per cent fraction of low control,,

# More lines, main results first:
"EC50 (Table 1, mean ± spread)",EC50 (Table 2 (esters)),Compound,Max Plateau [1],Max Plateau (Table 2 (esters)),also measured
,2.42 nM,CCC1=C(C(=O)OC)C(c2ccccc2F)c2c(sc(C(=O)c3cccc([N+](=O)[O-])c3)c2N)N1 (centres unmarked) [Compound 140],,266.63 per cent fraction of low control,
,6.91 nM,CCC1=C(C(=O)OC)C(c2ccccc2)c2c(sc(C(=O)c3cccc([N+](=O)[O-])c3)c2N)N1 (centres unmarked) [Compound 139],,281.08 per cent fraction of low control,
,4.95 nM,CCOC(=O)C1=C(CC)Nc2sc(C(=O)c3ccc(Cl)c(Cl)c3)c(N)c2C1c1ccncc1Cl (centres unmarked) [Compound 169],,261.04 per cent fraction of low control,
,247 nM,CCOC(=O)C1=C(CC)Nc2sc(C(=O)c3ccc(F)c(CC(=O)OC)c3)c(N)c2C1c1ccccc1 (racemic) [Compound 194],,188.67 per cent fraction of low control,
,10.1 nM,CCOC(=O)C1=C(CC)Nc2sc(C(=O)c3cc(F)cc(F)c3)c(N)c2C1c1ccccc1 (centres unmarked) [Compound 151],,273.61 per cent fraction of low control,
,5.24 nM,CCC1=C(C(=O)OC)C(c2ccccc2)c2c(sc(C(=O)c3cccc(C#N)c3)c2N)N1 (centres unmarked) [Compound 143],,290.53 per cent fraction of low control,
,0.478 nM,CCC1=C(C(=O)OC)C(c2cc(F)cc(F)c2)c2c(sc(C(=O)c3ccccc3)c2N)N1 (centres unmarked) [Compound 172],,304.08 per cent fraction of low control,
,63.2 nM,CCC1=C(C(=O)OCC(C)OC)C(c2ccccc2F)c2c(sc(C(=O)c3cccc(C#N)c3)c2N)N1 (centres unmarked) [Compound 180],,279.68 ± 65.32 per cent fraction of low control,
,60.9 nM,CCC1=C(C(=O)OC(C)COC)C(c2ccccc2F)c2c(sc(C(=O)c3cccc(C#N)c3)c2N)N1 (centres unmarked) [Compound 182],,251.54 ± 25.09 per cent fraction of low control,
,75.4 nM,CCC1=C(C(=O)OC2CCCCC2)C(c2ccccc2)c2c(sc(C(=O)c3ccc(Cl)c(Cl)c3)c2N)N1 (centres unmarked) [Compound 160],,186.95 per cent fraction of low control,
,15.6 nM,CCC1=C(C(=O)OC)C(c2c(F)cccc2F)c2c(sc(C(=O)c3ccc(Cl)c(Cl)c3)c2N)N1 (centres unmarked) [Compound 137],,213.90 per cent fraction of low control,
,2910 nM,CCOC(=O)C1=C(CC)Nc2sc(C(=O)c3cccc(C(=O)O)c3)c(N)c2C1c1ccccc1 (centres unmarked) [Compound 152],,238.69 per cent fraction of low control,
